In US20110136842A1, “Substituted Dihydroisoquinolinone and Isoquinolinedione Derivatives as Calcium Channel Blockers” (priority 2008, published 2011):

Target: T1, Human Cav2.2 channels (Homo sapiens, UniProt Q00975)
T1 construct: expressed in transfected cells
Assay: Fluorescent assay for Cav2.2 channels using potassium depolarization to initiate channel opening
Format: cell-based
Details: assay of Example 1 in the presence of 30 mM potassium (inactivated channel state)
Description: Human Cav2.2 channels were stably expressed in HEK293 cells along with alpha2-delta and beta subunits of voltage-gated calcium channels. An inwardly rectifying potassium channel (Kir2.3) was also expressed in these cells to allow more precise control of the cell membrane potential by extracellular potassium concentration. At low bath potassium concentration, the membrane potential is relatively negative, and is depolarized as the bath potassium concentration is raised. In this way, the bath potassium concentration can be used to regulate the voltage-dependent conformations of the channels. Compounds are incubated with cells in the presence of low (4 mM) potassium or elevated (12, 25 or 30 mM) potassium to determine the affinity for compound block of resting (closed) channels at 4 mM potassium or affinity for block of open and inactivated channels at 12, 25 or 30 mM potassium. After the incubation period, Cav2.2 channel opening is triggered by addition of higher concentration of potassium (70 mM final concentration) to further depolarize the cell. The degree of state-dependent block can be estimated from the inhibitory potency of compounds after incubation in different potassium concentrations.
Calcium influx through Cav2.2 channels is determined using a calcium-sensitive fluorescent dye in combination with a fluorescent plate reader. Fluorescent changes were measured with either a VIPR (Aurora Instruments) or FLIPR (Molecular Devices) plate reader.
• 1. Seed cells in Poly-D-Lysine Coated 96- or 384-well plate and keep in a 37° C.-10% CO2 incubator overnight • 2. Remove media, wash cells with 0.2 mL (96-well plate) or 0.05 mL (384-well plate) Dulbecco's Phosphate Buffered Saline (D-PBS) with calcium & magnesium (Invitrogen; 14040) • 3. […] Read cell plate on VIPR instrument, Excitation=480 nm, Emission=535 nm • 9. With VIPR continuously reading, add 0.1 mL (96-well plate) or 0.03 mL (384-well plate) of Depolarization Buffer, which is 2× the final assay concentration, to the cell plate.

T1 sequence (Q00975 whole entry): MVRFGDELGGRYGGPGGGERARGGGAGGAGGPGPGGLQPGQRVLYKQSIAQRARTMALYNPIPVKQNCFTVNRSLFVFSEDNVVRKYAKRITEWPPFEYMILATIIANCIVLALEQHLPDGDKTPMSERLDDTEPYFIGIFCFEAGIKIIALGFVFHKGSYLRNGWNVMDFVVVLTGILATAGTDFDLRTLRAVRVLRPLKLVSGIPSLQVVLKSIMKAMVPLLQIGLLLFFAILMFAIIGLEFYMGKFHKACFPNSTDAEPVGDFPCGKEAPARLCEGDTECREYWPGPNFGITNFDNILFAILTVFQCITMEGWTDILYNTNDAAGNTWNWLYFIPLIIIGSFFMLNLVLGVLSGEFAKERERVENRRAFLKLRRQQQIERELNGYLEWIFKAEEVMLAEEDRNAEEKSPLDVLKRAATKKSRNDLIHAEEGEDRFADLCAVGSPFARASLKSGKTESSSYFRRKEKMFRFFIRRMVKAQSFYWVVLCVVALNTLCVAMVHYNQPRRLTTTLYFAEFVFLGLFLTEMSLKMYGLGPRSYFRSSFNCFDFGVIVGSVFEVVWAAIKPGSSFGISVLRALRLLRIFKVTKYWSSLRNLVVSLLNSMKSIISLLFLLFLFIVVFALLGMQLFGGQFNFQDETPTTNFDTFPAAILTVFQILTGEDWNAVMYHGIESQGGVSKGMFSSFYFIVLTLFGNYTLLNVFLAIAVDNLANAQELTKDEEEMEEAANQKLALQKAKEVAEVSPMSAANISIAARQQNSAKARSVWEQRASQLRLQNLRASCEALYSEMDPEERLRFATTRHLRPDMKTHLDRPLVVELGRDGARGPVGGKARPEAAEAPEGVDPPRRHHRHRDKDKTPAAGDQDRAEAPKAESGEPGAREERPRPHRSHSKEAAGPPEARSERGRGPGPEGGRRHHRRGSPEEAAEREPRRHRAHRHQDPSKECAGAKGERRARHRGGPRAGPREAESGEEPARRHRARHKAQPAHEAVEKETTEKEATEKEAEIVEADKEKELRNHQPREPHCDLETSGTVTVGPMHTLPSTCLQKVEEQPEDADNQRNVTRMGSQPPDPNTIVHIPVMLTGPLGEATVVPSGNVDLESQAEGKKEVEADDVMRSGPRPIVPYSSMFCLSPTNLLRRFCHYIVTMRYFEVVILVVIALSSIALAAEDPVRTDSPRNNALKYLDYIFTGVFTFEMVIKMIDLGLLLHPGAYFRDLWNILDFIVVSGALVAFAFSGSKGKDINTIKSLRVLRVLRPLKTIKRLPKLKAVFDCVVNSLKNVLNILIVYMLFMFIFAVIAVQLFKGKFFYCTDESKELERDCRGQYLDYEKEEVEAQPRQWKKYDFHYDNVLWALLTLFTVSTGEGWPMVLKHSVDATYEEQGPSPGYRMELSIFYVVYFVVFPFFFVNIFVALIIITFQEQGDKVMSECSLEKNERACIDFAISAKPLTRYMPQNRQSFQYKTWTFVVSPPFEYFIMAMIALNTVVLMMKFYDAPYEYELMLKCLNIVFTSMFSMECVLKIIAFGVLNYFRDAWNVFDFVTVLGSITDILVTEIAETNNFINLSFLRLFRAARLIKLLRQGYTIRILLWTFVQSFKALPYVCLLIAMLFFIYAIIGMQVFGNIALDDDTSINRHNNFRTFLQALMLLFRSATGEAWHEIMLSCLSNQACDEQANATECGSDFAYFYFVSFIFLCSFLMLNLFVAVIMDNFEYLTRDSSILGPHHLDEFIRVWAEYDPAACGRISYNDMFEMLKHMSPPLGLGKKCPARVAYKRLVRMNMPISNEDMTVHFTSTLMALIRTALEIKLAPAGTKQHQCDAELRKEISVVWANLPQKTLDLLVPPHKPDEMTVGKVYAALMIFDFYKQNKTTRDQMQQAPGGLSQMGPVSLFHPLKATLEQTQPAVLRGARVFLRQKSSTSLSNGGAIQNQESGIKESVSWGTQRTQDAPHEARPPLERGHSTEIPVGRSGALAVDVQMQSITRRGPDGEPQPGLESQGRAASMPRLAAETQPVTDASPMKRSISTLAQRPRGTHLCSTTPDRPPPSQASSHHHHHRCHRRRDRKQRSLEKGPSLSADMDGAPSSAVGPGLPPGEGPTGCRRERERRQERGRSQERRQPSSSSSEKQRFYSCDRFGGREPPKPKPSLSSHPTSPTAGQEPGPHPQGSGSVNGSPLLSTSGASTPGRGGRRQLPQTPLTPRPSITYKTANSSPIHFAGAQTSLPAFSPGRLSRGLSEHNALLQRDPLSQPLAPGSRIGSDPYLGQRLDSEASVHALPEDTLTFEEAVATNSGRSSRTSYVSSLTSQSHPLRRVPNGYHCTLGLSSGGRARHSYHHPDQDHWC

| IC50 | SMILES |
| --- | --- |
| 260 nM | CC1(Cc2cc(F)cc(F)c2F)C(=O)NC(=O)c2ccc(-c3cccc(OCC(F)(F)F)c3)cc21 (stereo not drawn) [Example 2, 4-methyl-4-(2,3,5-trifluorobenzyl)-6-[3-(2,2,2-trifluoroethoxy)phenyl]isoquinoline-1,3(2H,4H)-dione] |
| 20 nM | Cn1cnc(N2Cc3ccc(-c4cccc(OCC(F)(F)F)c4)cc3C(C)(Cc3cc(F)cc(F)c3F)C2=O)c1 (stereo not drawn) [Example 3, 4-methyl-2-(1-methyl-1H-imidazol-4-yl)-4-(2,3,5-trifluorobenzyl)-6-[3-(2,2,2-trifiuoroethoxy)phenyl]-1,4-dihydroisoquinolin-3(2H)-one] |
| 230 nM | CC1(Cc2cc(F)cc(F)c2F)C(=O)NCc2ccc(-c3cccc(OCC(F)(F)F)c3)cc21 (stereo not drawn) [Example 1, 4-methyl-4-(2,3,5-trifluorobenzyl)-6-[3-(2,2,2-trifiuoroethoxy)phenyl]-1,4-dihydroisoquinolin-3(2H)-one] |
